Tests used:
[1] = In vitro stability in rat plasma (HPLC detection); format: in vitro ADME; details: 37° C.
Experimental: 1 mg of test compound is dissolved in 1.25 ml dimethylsulfoxide. Then 1.25 ml water are added. 0.5 ml of this sample solution are mixed with 0.5 ml heparinized and 37° C. warm plasma (wistar rat plasma or human plasma). A first sample (10 μl) is immediately taken for HPLC analysis. In the period up to 4 h after the start of incubation further 10 μl aliquots are taken after 30, 60, 90, 120 and 240 minutes and the amount of the test compound is determined.
Agilent 1100 with DAD (G1315A), binary pump (G1312A), autosampler (G1329A), column oven (G1316A), thermostat (G1330B); column: Kromasil 100 C18, 250 mm×4 mm, 5 μm; column temperature: 45° C.; eluent A: water+5 ml of perchloric acid/liter, eluent B: acetonitrile.

[2] = Stability in buffer at pH 7.4 (HPLC); format: physicochemical; details: buffer pH 7.4, 37° C.
Experimental: 0.3 mg of the test compound are solved in 0.1 ml dimethylsulfoxide and 0.4 ml acetonitrile. For complete dissolution the HPLC vial with the sample solution is sonified for about 20 seconds. Then 1.0 ml of the buffer solution is added, and the sample is again treated in the ultrasonic bath.
90 g of sodium chloride, 13.61 g of potassium dihydrogen phosphate and 83.35 g of 1 M sodium hydroxide solution are made up to 1 liter with Millipore water and then diluted 1:10.
10 μl portions of the sample solution are analysed by HPLC to determine the amount of the test compound over a period of 24 hours at 37° C. The peak areas in percentage are used for quantification.
Agilent 1100 with DAD (G1315B), binary pump (G1312A), autosampler (G1329A), column oven (G1316A), thermostat (G1330B); column: Kromasil 100 C18, 250 mm×4 mm, 5 μm; column temperature: 37° C.; eluent A: water+5 ml of perchloric acid/liter, eluent B: acetonitrile.
The ratio of the peak areas (F) at different time points in relation to the peak areas at the starting time are shown in Table 2 for representative examples: […]

Compound	% Test Compound after 4 h [F(t = 24 h) × 100/F(t = 0 h)] [1]	% Test Compound after 24 h [F(t = 24 h) × 100/F(t = 0 h)] [2]
COc1cc(S(C)(=O)=O)ccc1N(C(=O)OC(C)OC(=O)[C@@H](N)C(C)C)c1nc2ccc(-c3ccc(NC(=O)[C@H](C)c4ccc(F)cc4)cc3)cn2n1.Cl (mixture of isomers) [Example 3.1, (1RS)-1-({[6-(4-{[(2R)-2-(4-fluorophenyl)propanoyl]amino}phenyl)[1,2,4]triazolo[1,5-α]pyridin-2-yl][2-methoxy-4-(methylsulfonyl)phenyl]carbamoyl}oxy)ethyl L-valinate hydrochloride]	0.0%	0.0%
COc1cc(S(C)(=O)=O)ccc1N(C(=O)OCOC(=O)C(C)(C)CN)c1nc2ccc(-c3ccc(NC(=O)[C@H](C)c4ccc(F)cc4)cc3)cn2n1.O=C(O)C(F)(F)F [Example 1.8, ({[6-(4-{[(2R)-2-(4-fluorophenyl)propanoyl]amino}phenyl)[1,2,4]triazolo[1,5-α]pyridin-2-yl][2-methoxy-4-(methylsulfonyl)phenyl]carbamoyl}oxy)methyl 3-amino-2,2-dimethylpropanoate trifluoroacetate]	3%	0.0%
CNCCCC(=O)N(c1nc2ccc(-c3ccc(NC(=O)[C@H](C)c4ccc(F)cc4)cc3)cn2n1)c1ccc(S(C)(=O)=O)cc1OC.Cl [Example 4.1.1, N-[6-(4-{[(2R)-2-(4-fluorophenyl)propanoyl]amino}phenyl)[1,2,4]triazolo[1,5-α]pyridin-2-yl]-N-[2-methoxy-4-(methylsulfonyl)phenyl]-4-(methylamino)butanamide hydrochloride]	32%	21%
CN[C@H](C(=O)OCOC(=O)N(c1nc2ccc(-c3ccc(NC(=O)[C@H](C)c4ccc(F)cc4)cc3)cn2n1)c1ccc(S(C)(=O)=O)cc1OC)C(C)C.Cl [Example 1.4, ({[6-(4-{[(2R)-2-(4-fluorophenyl)propanoyl]amino}phenyl)[1,2,4]triazolo[1,5-α]pyridin-2-yl][2-methoxy-4-(methylsulfonyl)phenyl]carbamoyl}oxy)methyl N-methyl-L-valinate hydrochloride]	14%	0.0%
COc1cc(S(C)(=O)=O)ccc1N(C(=O)OC(OC(=O)[C@@H](N)C(C)C)C(C)C)c1nc2ccc(-c3ccc(NC(=O)[C@H](C)c4ccc(F)cc4)cc3)cn2n1.Cl (mixture of isomers) [Example 5.4, (1RS)-1-({[6-(4-{[(2R)-2-(4-fluorophenyl)propanoyl]amino}phenyl)[1,2,4]triazolo[1,5-α]pyridin-2-yl][2-methoxy-4-(methylsulfonyl)phenyl]carbamoyl}oxy)-2-methylpropyl-L-valinate hydrochloride]	44%	17%
COc1cc(S(C)(=O)=O)ccc1N(C(=O)OC(C)OC(=O)[C@@H](NC(=O)[C@@H](N)CCCCN)C(C)C)c1nc2ccc(-c3ccc(NC(=O)[C@H](C)c4ccc(F)cc4)cc3)cn2n1.Cl.Cl (mixture of isomers) [Example 2.2, (1RS)-1-({[6-(4-{[(2R)-2-(4-fluorophenyl)propanoyl]amino}phenyl)[1,2,4]triazolo[1,5-α]pyridin-2-yl][2-methoxy-4-(methylsulfonyl)phenyl]carbamoyl}oxy)ethyl L-lysyl-L-valinate dihydrochloride]	5%	0.0%
CNCCCC(=O)N(c1nc2ccc(-c3ccc(NC(=O)[C@H](C)c4ccc(F)cc4)cc3)cn2n1)c1ccc(S(C)(=O)=O)cc1OC.O=C(O)C(F)(F)F [Example 4.1, N-[6-(4-{[(2R)-2-(4-fluorophenyl)propanoyl]amino}phenyl)[1,2,4]triazolo[1,5-α]pyridin-2-yl]-N-[2-methoxy-4-(methylsulfonyl)phenyl]-4-(methylamino)butanamide trifluoroacetate]	12%	23%
